Laboratory results as given in ChEMBL document CHEMBL4507291 (2021).

Key:
[1] = molecular target: Mitogen-activated protein kinase 8 (Homo sapiens) (UniProt P45983)
[2] = molecular target: Hormonally up-regulated neu tumor-associated kinase (Homo sapiens) (UniProt P57058)
[3] = molecular target: T1, cAMP-dependent protein kinase catalytic subunit PRKX (Homo sapiens) (UniProt P51817)
T1 sequence (whole entry): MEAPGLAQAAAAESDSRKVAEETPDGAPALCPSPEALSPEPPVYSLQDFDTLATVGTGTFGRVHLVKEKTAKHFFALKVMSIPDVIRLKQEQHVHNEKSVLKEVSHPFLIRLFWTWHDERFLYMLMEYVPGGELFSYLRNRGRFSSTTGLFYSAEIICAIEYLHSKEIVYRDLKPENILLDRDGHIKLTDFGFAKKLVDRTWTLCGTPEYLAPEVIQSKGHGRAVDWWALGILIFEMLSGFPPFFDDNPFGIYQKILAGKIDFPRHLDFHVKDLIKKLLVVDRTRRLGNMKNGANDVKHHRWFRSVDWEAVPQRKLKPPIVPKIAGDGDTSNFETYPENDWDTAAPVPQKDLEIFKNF

[4] = molecular target: Casein kinase II subunit alpha' (Homo sapiens) (UniProt P19784)
Casein kinase II subunit alpha' (Homo sapiens), sequence (P19784 whole entry, looked up): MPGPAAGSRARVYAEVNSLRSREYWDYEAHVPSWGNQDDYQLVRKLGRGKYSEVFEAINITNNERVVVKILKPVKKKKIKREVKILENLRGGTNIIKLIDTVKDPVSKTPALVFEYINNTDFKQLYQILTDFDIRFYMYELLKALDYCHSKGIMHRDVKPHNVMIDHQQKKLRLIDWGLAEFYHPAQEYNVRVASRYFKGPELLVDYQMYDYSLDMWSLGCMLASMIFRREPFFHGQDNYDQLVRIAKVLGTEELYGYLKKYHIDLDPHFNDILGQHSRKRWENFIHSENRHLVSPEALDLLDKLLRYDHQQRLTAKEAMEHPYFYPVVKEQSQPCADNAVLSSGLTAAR

[5] = molecular target: Leukocyte tyrosine kinase receptor (Homo sapiens) (UniProt P29376)
Leukocyte tyrosine kinase receptor (Homo sapiens), sequence (P29376 whole entry): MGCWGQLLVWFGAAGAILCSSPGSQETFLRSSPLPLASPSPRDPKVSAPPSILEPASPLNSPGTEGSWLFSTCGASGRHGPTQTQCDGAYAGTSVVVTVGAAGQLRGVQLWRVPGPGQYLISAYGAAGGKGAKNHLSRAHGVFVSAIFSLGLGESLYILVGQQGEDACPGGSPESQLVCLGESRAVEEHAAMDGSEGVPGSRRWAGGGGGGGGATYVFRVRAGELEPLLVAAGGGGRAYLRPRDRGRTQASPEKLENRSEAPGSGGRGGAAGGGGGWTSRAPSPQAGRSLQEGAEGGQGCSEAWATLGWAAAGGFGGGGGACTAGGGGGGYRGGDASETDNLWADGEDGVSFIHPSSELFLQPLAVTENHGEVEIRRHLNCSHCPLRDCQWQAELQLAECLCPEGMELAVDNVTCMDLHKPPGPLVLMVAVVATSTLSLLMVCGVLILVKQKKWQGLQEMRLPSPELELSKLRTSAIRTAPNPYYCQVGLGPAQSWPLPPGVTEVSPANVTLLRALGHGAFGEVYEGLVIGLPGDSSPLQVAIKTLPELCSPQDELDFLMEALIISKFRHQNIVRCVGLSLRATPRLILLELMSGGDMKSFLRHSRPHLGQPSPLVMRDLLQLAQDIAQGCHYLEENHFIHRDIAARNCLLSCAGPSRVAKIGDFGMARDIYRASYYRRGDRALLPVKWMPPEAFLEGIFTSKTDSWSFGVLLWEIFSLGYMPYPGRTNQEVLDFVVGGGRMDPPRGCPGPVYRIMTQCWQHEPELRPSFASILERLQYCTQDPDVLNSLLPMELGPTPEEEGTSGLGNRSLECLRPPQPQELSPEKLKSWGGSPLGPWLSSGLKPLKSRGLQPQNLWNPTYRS

[6] = molecular target: T2, Mitogen-activated protein kinase kinase kinase 2 (Homo sapiens) (UniProt Q9Y2U5)
T2 sequence (whole entry): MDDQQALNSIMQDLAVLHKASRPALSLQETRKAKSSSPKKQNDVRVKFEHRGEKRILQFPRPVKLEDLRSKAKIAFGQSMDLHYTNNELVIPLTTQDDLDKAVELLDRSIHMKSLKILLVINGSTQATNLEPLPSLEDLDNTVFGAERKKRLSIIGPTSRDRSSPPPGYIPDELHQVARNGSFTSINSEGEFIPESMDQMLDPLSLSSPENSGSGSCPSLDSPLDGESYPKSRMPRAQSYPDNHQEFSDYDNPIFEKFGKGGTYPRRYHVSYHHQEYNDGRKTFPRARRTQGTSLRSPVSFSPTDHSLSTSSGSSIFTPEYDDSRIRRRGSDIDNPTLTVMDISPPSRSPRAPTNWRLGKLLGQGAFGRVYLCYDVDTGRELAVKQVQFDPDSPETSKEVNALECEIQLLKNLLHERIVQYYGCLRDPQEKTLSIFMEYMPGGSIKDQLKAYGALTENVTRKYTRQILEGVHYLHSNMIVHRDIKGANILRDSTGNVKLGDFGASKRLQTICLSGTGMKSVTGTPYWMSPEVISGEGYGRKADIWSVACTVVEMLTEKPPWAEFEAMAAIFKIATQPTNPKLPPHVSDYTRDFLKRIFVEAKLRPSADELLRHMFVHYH

[7] = molecular target: Cyclin-dependent kinase 13 (Homo sapiens) (UniProt Q14004)
Cyclin-dependent kinase 13 (Homo sapiens), sequence (Q14004 whole entry, looked up): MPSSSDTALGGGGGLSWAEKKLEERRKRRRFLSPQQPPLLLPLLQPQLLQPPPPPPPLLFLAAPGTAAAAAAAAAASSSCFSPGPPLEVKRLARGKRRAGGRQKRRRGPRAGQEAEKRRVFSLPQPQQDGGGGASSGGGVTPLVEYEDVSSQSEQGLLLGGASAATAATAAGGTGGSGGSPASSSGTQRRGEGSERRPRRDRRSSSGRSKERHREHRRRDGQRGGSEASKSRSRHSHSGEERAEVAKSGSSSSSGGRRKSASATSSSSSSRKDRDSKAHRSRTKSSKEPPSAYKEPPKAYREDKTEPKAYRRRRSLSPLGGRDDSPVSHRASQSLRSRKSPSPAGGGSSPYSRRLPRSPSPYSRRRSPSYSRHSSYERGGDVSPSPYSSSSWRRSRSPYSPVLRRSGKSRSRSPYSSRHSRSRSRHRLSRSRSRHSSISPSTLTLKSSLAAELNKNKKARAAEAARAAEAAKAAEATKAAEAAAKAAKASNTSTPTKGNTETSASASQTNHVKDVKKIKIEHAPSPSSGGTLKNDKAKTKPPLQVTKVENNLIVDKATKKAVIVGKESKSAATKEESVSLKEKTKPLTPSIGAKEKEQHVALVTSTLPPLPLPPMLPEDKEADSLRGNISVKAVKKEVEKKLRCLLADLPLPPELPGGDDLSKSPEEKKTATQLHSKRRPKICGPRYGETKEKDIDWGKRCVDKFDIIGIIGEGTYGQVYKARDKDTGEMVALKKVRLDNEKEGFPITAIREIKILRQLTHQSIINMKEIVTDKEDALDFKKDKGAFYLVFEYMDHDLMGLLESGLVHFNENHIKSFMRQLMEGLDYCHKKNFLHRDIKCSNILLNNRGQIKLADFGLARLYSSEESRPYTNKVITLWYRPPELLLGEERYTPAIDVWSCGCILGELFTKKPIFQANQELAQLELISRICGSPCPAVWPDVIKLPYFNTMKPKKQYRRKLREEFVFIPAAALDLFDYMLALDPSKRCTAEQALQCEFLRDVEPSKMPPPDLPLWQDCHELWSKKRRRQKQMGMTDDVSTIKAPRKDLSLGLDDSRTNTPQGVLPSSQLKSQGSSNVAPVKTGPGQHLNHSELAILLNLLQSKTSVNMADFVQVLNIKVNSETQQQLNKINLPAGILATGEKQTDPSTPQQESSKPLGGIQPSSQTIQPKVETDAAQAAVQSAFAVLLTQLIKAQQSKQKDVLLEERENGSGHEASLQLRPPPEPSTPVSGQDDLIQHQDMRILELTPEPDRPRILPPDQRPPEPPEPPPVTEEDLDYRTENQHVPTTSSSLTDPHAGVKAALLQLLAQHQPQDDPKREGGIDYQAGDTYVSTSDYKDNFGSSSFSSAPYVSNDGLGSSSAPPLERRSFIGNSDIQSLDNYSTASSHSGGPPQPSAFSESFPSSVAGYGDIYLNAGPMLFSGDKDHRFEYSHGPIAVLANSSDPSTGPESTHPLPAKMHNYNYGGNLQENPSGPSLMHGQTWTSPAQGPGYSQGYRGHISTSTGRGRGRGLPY

[8] = molecular target: T3, Mitogen-activated protein kinase kinase kinase 5 (Homo sapiens) (UniProt Q99683)
T3 sequence (whole entry): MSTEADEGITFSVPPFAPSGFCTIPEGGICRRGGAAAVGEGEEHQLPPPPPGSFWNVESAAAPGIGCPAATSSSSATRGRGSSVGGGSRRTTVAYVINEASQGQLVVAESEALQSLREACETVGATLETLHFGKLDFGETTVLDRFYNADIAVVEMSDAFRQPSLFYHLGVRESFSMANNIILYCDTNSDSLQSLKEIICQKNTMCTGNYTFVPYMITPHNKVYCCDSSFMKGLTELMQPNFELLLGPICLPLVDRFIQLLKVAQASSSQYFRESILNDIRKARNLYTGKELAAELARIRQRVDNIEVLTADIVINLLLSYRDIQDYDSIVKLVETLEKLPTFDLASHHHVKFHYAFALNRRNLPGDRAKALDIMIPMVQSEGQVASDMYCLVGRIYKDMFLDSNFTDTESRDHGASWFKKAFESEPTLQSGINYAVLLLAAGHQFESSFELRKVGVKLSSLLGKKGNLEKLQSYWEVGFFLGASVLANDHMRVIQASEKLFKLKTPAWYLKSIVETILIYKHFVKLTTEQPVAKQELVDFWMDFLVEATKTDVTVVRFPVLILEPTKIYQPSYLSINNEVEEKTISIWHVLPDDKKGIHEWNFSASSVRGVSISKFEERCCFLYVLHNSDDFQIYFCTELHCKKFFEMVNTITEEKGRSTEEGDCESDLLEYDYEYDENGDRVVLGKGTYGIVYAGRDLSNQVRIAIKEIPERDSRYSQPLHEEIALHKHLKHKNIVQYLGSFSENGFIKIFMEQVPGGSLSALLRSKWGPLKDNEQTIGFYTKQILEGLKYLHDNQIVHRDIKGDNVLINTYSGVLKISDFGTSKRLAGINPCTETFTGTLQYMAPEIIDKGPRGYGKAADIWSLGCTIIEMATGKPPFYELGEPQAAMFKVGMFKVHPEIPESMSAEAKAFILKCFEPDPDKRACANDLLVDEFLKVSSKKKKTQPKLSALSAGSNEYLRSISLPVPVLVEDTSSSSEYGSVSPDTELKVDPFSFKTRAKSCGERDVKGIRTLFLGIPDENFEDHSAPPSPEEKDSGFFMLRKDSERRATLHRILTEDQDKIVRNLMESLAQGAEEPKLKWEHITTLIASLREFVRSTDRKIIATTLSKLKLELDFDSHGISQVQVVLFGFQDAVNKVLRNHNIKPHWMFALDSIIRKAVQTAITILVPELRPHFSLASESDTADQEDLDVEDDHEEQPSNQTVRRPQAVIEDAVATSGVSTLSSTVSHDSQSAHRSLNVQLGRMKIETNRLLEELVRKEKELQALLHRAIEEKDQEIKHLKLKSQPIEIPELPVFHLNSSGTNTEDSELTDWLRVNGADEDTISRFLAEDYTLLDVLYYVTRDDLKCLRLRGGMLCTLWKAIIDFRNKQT

[9] = Compound concentration 1000.0 nM
[10] = Compound concentration 100.0 nM

Measured: residual activity

Mitogen-activated protein kinase 8 (Homo sapiens), sequence (P45983 whole entry): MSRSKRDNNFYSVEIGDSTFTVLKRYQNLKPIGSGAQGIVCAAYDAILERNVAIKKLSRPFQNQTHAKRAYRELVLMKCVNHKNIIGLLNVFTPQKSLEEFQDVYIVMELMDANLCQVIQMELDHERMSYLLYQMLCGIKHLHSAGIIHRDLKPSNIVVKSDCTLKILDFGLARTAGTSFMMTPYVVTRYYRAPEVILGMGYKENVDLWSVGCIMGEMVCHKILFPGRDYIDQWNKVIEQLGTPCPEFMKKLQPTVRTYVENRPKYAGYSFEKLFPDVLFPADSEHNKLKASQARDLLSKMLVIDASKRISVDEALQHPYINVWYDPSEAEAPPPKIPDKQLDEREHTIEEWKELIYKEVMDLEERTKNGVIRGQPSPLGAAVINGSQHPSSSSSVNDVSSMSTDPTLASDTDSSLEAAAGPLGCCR
Hormonally up-regulated neu tumor-associated kinase (Homo sapiens), sequence (P57058 whole entry): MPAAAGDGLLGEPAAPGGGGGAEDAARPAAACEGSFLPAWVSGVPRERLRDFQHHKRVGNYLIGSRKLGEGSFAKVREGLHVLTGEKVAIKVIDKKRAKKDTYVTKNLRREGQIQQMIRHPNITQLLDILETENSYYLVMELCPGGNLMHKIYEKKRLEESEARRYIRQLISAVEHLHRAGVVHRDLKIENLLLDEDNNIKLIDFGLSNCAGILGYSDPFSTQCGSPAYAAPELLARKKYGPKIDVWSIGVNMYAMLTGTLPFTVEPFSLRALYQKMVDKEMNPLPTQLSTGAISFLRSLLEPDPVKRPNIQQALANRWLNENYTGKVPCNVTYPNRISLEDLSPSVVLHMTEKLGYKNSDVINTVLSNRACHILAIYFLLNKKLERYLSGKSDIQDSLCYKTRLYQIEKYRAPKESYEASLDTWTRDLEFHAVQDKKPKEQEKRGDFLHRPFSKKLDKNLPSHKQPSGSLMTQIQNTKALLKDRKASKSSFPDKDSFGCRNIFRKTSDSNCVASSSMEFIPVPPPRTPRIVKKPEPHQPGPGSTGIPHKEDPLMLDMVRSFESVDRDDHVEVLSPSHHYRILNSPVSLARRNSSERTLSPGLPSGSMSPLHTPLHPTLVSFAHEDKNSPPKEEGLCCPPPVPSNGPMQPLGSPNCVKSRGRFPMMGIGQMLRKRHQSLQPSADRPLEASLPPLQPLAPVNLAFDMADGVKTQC

C[C@@H]1CN(c2cc(-c3nn(C)c4ccc(OC5(C)CC5)cc34)ncn2)C[C@H](C)O1 [MLi-2-NC]
inactive: [1]; [9] 82% | [2]; [9] 100% | [3]; [9] 92% | [4]; [9] 86% | [5]; [9] 100% | [6]; [9] 83% | [7]; [9] 86% | [8]; [9] 100%

C[C@@H]1CN(c2cc(-c3n[nH]c4ccc(OC5(C)CC5)cc34)ncn2)C[C@H](C)O1 [MLi-2]
inactive: [1]; [10] 63% | [2]; [10] 79% | [3]; [10] 86% | [4]; [10] 100% | [5]; [10] 84% | [6]; [10] 73% | [7]; [10] 84% | [8]; [10] 88%
